Reference: PubChem BioAssay AID503

Target: Regulator of G-protein signaling 18 (Homo sapiens) (UniProt Q9NS28)
Test: RGS18 binders by thermal stabilization, biophysical, recombinant human protein, DSF (AID 503)
Conditions: SYPRO orange, at 10 µM, protein 2 µM, buffer 10 mM HEPES, pH 7.5, NaCl 150 mM, stronger effect = higher value

Sequence of Regulator of G-protein signaling 18 (Homo sapiens) (Q9NS28 whole entry, looked up): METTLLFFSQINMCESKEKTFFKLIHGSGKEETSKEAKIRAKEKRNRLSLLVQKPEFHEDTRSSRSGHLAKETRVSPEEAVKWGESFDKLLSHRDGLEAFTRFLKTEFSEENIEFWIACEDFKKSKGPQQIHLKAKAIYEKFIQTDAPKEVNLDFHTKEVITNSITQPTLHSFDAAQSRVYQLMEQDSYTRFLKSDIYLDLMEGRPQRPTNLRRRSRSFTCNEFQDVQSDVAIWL

Tm shift [°C]	Structure (SMILES)
2.6	O=C1NCc2c1c1c3ccccc3[nH]c1c1[nH]c3ccccc3c21
4	O=C(Nc1cccc(Nc2cc(Nc3cccc(C(F)(F)F)c3)ncn2)c1)C1CC1
